# Paper PMC3746989 (ACS medicinal chemistry letters, 2013)
# Columns and labels:
# [1] = test system: PrP^Sc in RML prion-infected mouse neuroblastoma (ScN2a-cl3) cells; format: cell-based; details: for antiprion activity: relative to the 4-bromophenyl amide 10
# ScN2a-cl3 cells = assay: Cell viability / compound toxicity with fluorescent probe calcein-AM; format: cell-based, mouse
# [2] = In vivo mouse single-dose PK, brain and plasma exposure; details: for brain exposure / drug levels in brain: mice, oral dosing
# [3] = mouse, oral 10 mg/kg, brain, relative to 21
SMILES,Calcein AM LD50 (ScN2a-cl3 cells),metabolic stability in hepatic microsomal preparations,brain exposure / drug levels in brain [2],further results
CCOc1cccc(C(=O)Nc2ccc(N3CCN(C)CC3)cc2)c1 [Compound 8],,,,antiprion activity [1]: inactivity
CN1CCN(c2ccc(NC(=O)c3cccc(Br)c3)cc2)CC1 [Compound 9],,,,antiprion activity [1]: inactivity
CC(=O)c1ccc(NC(=O)c2ccc(-c3ccccc3)cc2)cc1 [Compound 14],,,,"fold improvement in potency, 14 versus 6 [1]: 10 fold"
CN1CCN(c2ccc(NC(=O)c3ccc(-c4ccccc4)cc3)cc2)CC1 [Compound 15],>5000 nM,,,fold increase in antiprion potency over compound 7 ([1]; relative to original lead 7): 4 fold
CC(C)N1CCN(c2ccc(NC(=O)c3ccc(-c4ccccc4)cc3)cc2)CC1 [Compound 17],">10,000 nM",excellent metabolic stability,excellent drug levels in the brains,
CCN1CCN(c2ccc(NC(=O)c3ccc(-c4ccccn4)cc3)cc2)CC1 [Compound 20],">10,000 nM",,excellent drug levels in the brains,"fold higher brain AUC than 21 [2, 3]: > 7 fold; fold higher brain Cmax than 21 [2, 3]: > 4 fold"
CCN1CCN(c2ccc(NC(=O)c3ccc(-c4cccnc4)cc3)cc2)CC1 [Compound 21],">10,000 nM",,,
CCN1CCN(c2ccc(NC(=O)c3ccc(-c4ccncc4)cc3)cc2)CC1 [Compound 22],">10,000 nM",,,
CC(C)N1CCN(c2ccc(NC(=O)c3ccc(-c4ccccn4)cc3)cc2)CC1 [Compound 23],">10,000 nM",,much lower brain exposure than either 16 or 20,
CC(C)N1CCN(c2ccc(NC(=O)c3ccc(-c4ccccn4)cc3)nc2)CC1 [Compound 24],">10,000 nM",excellent metabolic stability,excellent drug levels in the brains,
CC(C)N1CCN(c2ccc(NC(=O)c3ccc(-c4ccccn4)cc3)cn2)CC1 [Compound 25],">10,000 nM",,,
CC(C)N1CCN(c2ccc(NC(=O)c3ccc(-c4ccccn4)cc3)c(F)c2)CC1 [Compound 26],">10,000 nM",excellent metabolic stability,excellent drug levels in the brains,
CC(C)N1CCN(c2ccc(NC(=O)c3ccc(-c4ccccn4)cc3)cc2F)CC1 [Compound 27],">10,000 nM",excellent metabolic stability,excellent drug levels in the brains,
